The test has as its system mouse EST cluster TC20248 (CitE homolog gene) in white adipose tissue. The test can be described thus: Affymetrix GeneChip analysis of white adipose tissue mRNA from β3-agonist treated mice. The format is in vivo. Particulars: male C57B1/6J mice, CL 316,243 1 mg/kg injected every 12 h, 2 doses, white adipose tissue collected at 24 h, versus saline control, Mu19K GeneChips. The method, then:
Male C57B1/6J mice, 12 weeks old, were housed under conditions of ambient temperature and free access to water and chow. Either the β3-selective agonist CL 316,243 (1mg/kg) or saline was injected every 12h with 2 doses during a total period of 24 hours. The animals were decapitated 24 h after the experiment was started, and the white adipose tissue was quickly collected and immediately frozen into liquid nitrogen.
PolyA^+ mRNAs were extracted from white adipose tissue from control and β3-agonist treated mice respectively. They were reverse transcribed using a T7-tagged oligo-dT primer and double-stranded cDNAs were generated. These cDNAs were then amplified and labeled using In vitro transcription (IVT) with T7 RNA polymerase and biotinylated nucleotides. The populations of cRNAs obtained after IVT were purified and fragmented by heat to produce a distribution of RNA fragment sizes from approximately 35 to 200 bases. […] The cartridges were scanned using a Hewlett-Packard confocal scanner and the images were analyzed with the GeneChip 3.1 software (Affymetrix). The identity of the genes represented on the Affymetrix GeneChips was assessed by performing searches using BLAST (Altschul et al., J. Molec. Biol., 1990, 215, 403-410), which is incorporated herein by reference in its entirety) on available protein sequence databanks. […]

`C[C@H](Cc1ccc2c(c1)OC(C(=O)[O-])(C(=O)[O-])O2)NC[C@H](O)c1cccc(Cl)c1.[Na+].[Na+]` [CL 316,243]: the “transcriptional change of the CitE homolog gene (TIGR Mouse Gene Index TC20248)” value is given as “down-regulated”. Besides, the “transcriptional change of the CitE homolog gene (TIGR Mouse Gene Index TC20248)” value (listed as β3-agonist) is “downregulated by a factor of two”.

(Values after US20030104603A1, “Protein” (priority 2001, published 2003).)
